Here are results for 46 compounds from patent publication US9096565B2, “Inhibitors of histone deacetylase” (MethylGene Inc., priority 2007, dated 2015).

For the test, the target named is one or more of HDAC-4, HDAC-5, HDAC-6, HDAC-7, HDAC-8, HDAC-9, HDAC-10 and HDAC-11. Briefly: Inhibition of histone deacetylase enzymatic activity (summary statement over isoforms). The test is classed as biochemical. Particulars: Table 3, selected examples; HDAC isoform not given. An outline of the steps:
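HDAC enzyme mix with compound was preincubated 5 min at room temperature. Reaction was started at 37 °C with Boc-Lys(trifluoroacetyl)-AMC substrate and run 20-30 min. It was stopped with trypsin (1 mg/mL) plus a known HDAC inhibitor to release the fluorogenic AMC.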

pIC50: −log10 of the molar value.

For orientation: pIC50 means −log10 of the IC50, conventionally taken in molar units. Compound `Cn1cncc1C#Cc1ccc(C(C(=O)NO)c2ccccc2)cc1` (stereo not shown) [Compound 5-79, N-hydroxy-2-(4-((1-methyl-1H-imidazol-5-yl)ethynyl)phenyl)-2-phenylacetamide] had a pIC50 greater than 6.00.

In turn, `Cc1cc(C)nc(N2CCN(C(C(=O)NO)c3ccccc3)CC2)n1` (stereo not shown) [Compound 5-80, 2-(4-(4,6-dimethylpyrimidin-2-yl)piperazin-1-yl)-N-hydroxy-2-phenylacetamide] had a pIC50 greater than 6.00.

`O=C(NO)C(c1ccccc1)c1ccc(-n2ccc3ccccc32)cc1` (stereo not shown) [Compound 5-81, 2-(4-(1H-indol-1-yl)phenyl)-N-hydroxy-2-phenylacetamide]: the pIC50 was greater than 6.00.

In turn, `CCN(CC)c1ccc(C(C(=O)NO)c2ccc3c(c2)CCO3)cc1` (stereo not shown) [Compound 5-82, 2-(4-(diethylamino)phenyl)-2-(2,3-dihydrobenzofuran-5-yl)-N-hydroxyacetamide] gave a pIC50 greater than 6.00.

In turn, `CN1CCN(c2ccc(C(C(=O)NO)c3ccccc3)cc2)CC1` (stereo not shown) [Compound 5-83, N-hydroxy-2-(4-(4-methylpiperazin-1-yl)phenyl)-2-phenylacetamide] showed a pIC50 greater than 6.00.

As to `COc1ccc(N2CCN(c3ccc(C(C(=O)NO)c4ccccc4)cc3)CC2)cc1` (stereo not shown) [Compound 5-84, N-hydroxy-2-(4-(4-(4-methoxyphenyl)piperazin-1-yl)phenyl)-2-phenylacetamide], the pIC50 is greater than 6.00.

For the compound `O=C(NO)C(c1ccccc1)c1ccc(N2CCN(C/C=C/c3ccccc3)CC2)cc1` (stereo not shown) [Compound 5-85, (E)-2-(4-(4-cinnamylpiperazin-1-yl)phenyl)-N-hydroxy-2-phenylacetamide], the pIC50 was greater than 6.00.

Consider `O=C(NO)C(c1ccccc1)c1ccc(N2CCNCC2)cc1` (stereo not shown) [Compound 5-86, N-hydroxy-2-phenyl-2-(4-(piperazin-1-yl)phenyl)acetamide], for which the pIC50 was greater than 6.00.

`O=C(NO)C(c1ccccc1)N1CCN(S(=O)(=O)Cc2ccccc2)CC1` (stereo not shown) [Compound 5-87, 2-(4-(benzylsulfonyl)piperazin-1-yl)-N-hydroxy-2-phenylacetamide]: the pIC50 is 4.82 to 6.00.

For the compound `O=C(NO)C(c1ccccc1)c1ccc(-n2ccnc2)cc1` (stereo not shown) [Compound 5-88, 2-(4-(1H-imidazol-1-yl)phenyl)-N-hydroxy-2-phenylacetamide], the pIC50 is greater than 6.00.

As to `O=C(NO)C(c1ccc(F)cc1)c1cccc(-c2ccccc2)c1` (stereo not shown) [Compound 5-89, 2-(biphenyl-3-yl)-2-(4-fluorophenyl)-N-hydroxyacetamide], the pIC50 was greater than 6.00.

`O=C(NO)C(c1ccc(F)cc1)c1ccc(N2CCOCC2)cc1` (stereo not shown) [Compound 5-90, 2-(4-fluorophenyl)-N-hydroxy-2-(4-morpholinophenyl)acetamide] showed a pIC50 greater than 6.00.

In turn, `O=C(NO)C(c1ccccc1)c1ccc(C#CCN2CCS(=O)(=O)CC2)cc1` (stereo not shown) [Compound 5-91] showed a pIC50 greater than 6.00.

The compound `COc1ncc(-c2ccc(C(C(=O)NO)c3ccccc3)cc2)cn1` (stereo not shown) [Compound 5-92, N-hydroxy-2-(4-(2-methoxypyrimidin-5-yl)phenyl)-2-phenylacetamide] gave a pIC50 greater than 6.00.

On to `CC(C)N1CCN(c2ccc(C(C(=O)NO)c3ccccc3)cc2)CC1` (stereo not shown) [Compound 5-93, N-hydroxy-2-(4-(4-isopropylpiperazin-1-yl)phenyl)-2-phenylacetamide], for which the pIC50 was greater than 6.00.

`CN(C)CCN1CCN(c2ccc(C(C(=O)NO)c3ccccc3)cc2)CC1` (stereo not shown) [Compound 5-94, 2-(4-(4-(2-(dimethylamino)ethyl)piperazin-1-yl)phenyl)-N-hydroxy-2-phenylacetamide] had a pIC50 greater than 6.00.

As for `O=C(NO)C(c1ccccc1)c1ccc(CCCN2CCS(=O)(=O)CC2)cc1` (stereo not shown) [Compound 5-95], the pIC50 is greater than 6.00.

In turn, `O=C(NO)C(c1ccccc1)c1ccc(OCCN2CCCC2)cc1` (stereo not shown) [Compound 5-96, N-hydroxy-2-phenyl-2-(4-(2-(pyrrolidin-1-yl)ethoxy)phenyl)acetamide] gave a pIC50 greater than 6.00.

`O=C(NO)C(c1ccccc1)c1ccc(N2CCN(S(=O)(=O)c3ccccc3)CC2)cc1` (stereo not shown) [Compound 5-97, N-hydroxy-2-phenyl-2-(4-(4-(phenylsulfonyl)piperazin-1-yl)phenyl)acetamide] showed a pIC50 greater than 6.00.

Compound `O=CN(O)C(c1ccccc1)c1ccc(OCc2ccccc2)cc1` (stereo not shown) [Compound 5-98, N-((4-(benzyloxy)phenyl)(phenyl)methyl)-N-hydroxyformamide] had a pIC50 of 4.82 to 6.00.

`CN1CCC(Oc2ccc(C(C(=O)NO)c3ccccc3)cc2)CC1` (stereo not shown) [Compound 5-99, N-hydroxy-2-(4-(1-methylpiperidin-4-yloxy)phenyl)-2-phenylacetamide] showed a pIC50 greater than 6.00.

Regarding `COCCN1CCN(c2ccc(C(C(=O)NO)c3ccccc3)cc2)CC1` (stereo not shown) [Compound 5-100, N-hydroxy-2-(4-(4-(2-methoxyethyl)piperazin-1-yl)phenyl)-2-phenylacetamide], the pIC50 is greater than 6.00.

On to `CCN(CC)CC#Cc1ccc(C(C(=O)NO)c2ccccc2)cc1` (stereo not shown) [Compound 5-101, 2-(4-(3-(diethylamino)prop-1-ynyl)phenyl)-N-hydroxy-2-phenylacetamide], for which the pIC50 is greater than 6.00.

`CCCc1ccc(C(C(=O)NO)c2ccccc2)cc1` (stereo not shown) [Compound 5-102, N-hydroxy-2-phenyl-2-(4-propylphenyl)acetamide] gave a pIC50 greater than 6.00.

As to `O=C(NO)C(c1ccccc1)N1CCN(c2ccccc2O)CC1` (stereo not shown) [Compound 5-103, N-hydroxy-2-(4-(2-hydroxyphenyl)piperazin-1-yl)-2-phenylacetamide], the pIC50 was 4.82 to 6.00.

As to `O=C(NO)C(c1ccc(N2CCOCC2)cc1)c1cccs1` (stereo not shown) [Compound 5-104, N-hydroxy-2-(4-morpholinophenyl)-2-(thiophen-2-yl)acetamide], the pIC50 was greater than 6.00.

`O=C(NO)C(c1ccccc1)c1ccc(N2CCN(CC3CC3)CC2)cc1` (stereo not shown) [Compound 5-105, 2-(4-(4-(cyclopropylmethyl)piperazin-1-yl)phenyl)-N-hydroxy-2-phenylacetamide] showed a pIC50 greater than 6.00.

Take `O=C(NO)C(c1ccccc1)c1ccc(N2CCCC2=O)cc1` (stereo not shown) [Compound 5-106, N-hydroxy-2-(4-(2-oxopyrrolidin-1-yl)phenyl)-2-phenylacetamide]: the pIC50 is greater than 6.00.

Compound `O=C(NO)C(c1ccccc1)c1ccc(N2Cc3ccccc3C2)cc1` (stereo not shown) [Compound 5-107, N-hydroxy-2-(4-(isoindolin-2-yl)phenyl)-2-phenylacetamide] had a pIC50 greater than 6.00.

In turn, `Nc1ccccc1NC(=O)c1ccc(C(C(=O)NO)c2ccccc2)cc1` (stereo not shown) [Compound 5-108, N-(2-aminophenyl)-4-(2-(hydroxyamino)-2-oxo-1-phenylethyl)benzamide] had a pIC50 greater than 6.00.

For the compound `COc1ccccc1COc1ccc(C(C(=O)NO)c2ccccc2)cc1` (stereo not shown) [Compound 5-109, N-hydroxy-2-(4-(2-methoxybenzyloxy)phenyl)-2-phenylacetamide], the pIC50 was greater than 6.00.

In turn, `O=C(NO)C(c1ccccc1)c1ccc(N2CCCCC2=O)cc1` (stereo not shown) [Compound 5-110, N-hydroxy-2-(4-(2-oxopiperidin-1-yl)phenyl)-2-phenylacetamide] showed a pIC50 greater than 6.00.

For `O=C(NO)C(c1ccccc1)c1ccc(Oc2ccccc2)cc1` (stereo not shown) [Compound 5-111, N-hydroxy-2-(4-phenoxyphenyl)-2-phenylacetamide], the pIC50 is greater than 6.00.

With `O=C(NO)C(c1ccc(N2CCOCC2)cc1)c1ccsc1` (stereo not shown) [Compound 5-112, N-hydroxy-2-(4-morpholinophenyl)-2-(thiophen-3-yl)acetamide], the pIC50 is greater than 6.00.

Turning to `COc1cccc(C(C(=O)NO)c2ccc(N3CCOCC3)cc2)c1` (stereo not shown) [Compound 5-113, N-hydroxy-2-(3-methoxyphenyl)-2-(4-morpholinophenyl)acetamide], the negative-log IC50 (pIC50) was greater than 6.00.

As to `O=C(NO)C(c1ccccc1)N1CCOCC1` (stereo not shown) [Compound 5-113b, N-hydroxy-2-morpholino-2-phenylacetamide], the pIC50 was 4.82 to 6.00.

In turn, `CCC(=O)ONC(=O)C(c1ccccc1)c1ccc(N2CCOCC2)cc1` (stereo not shown) [Compound 5-114, 2-(4-morpholinophenyl)-2-phenyl-N-(propionyloxy)acetamide] gave a pIC50 of 4.82 to 6.00.

Take `Cc1ccc(C(C(=O)NO)c2ccc(N3CCOCC3)cc2)cc1` (stereo not shown) [Compound 5-115, N-hydroxy-2-(4-morpholinophenyl)-2-p-tolylacetamide]: the pIC50 was 4.82 to 6.00.

The compound `O=C(NO)C(Sc1ccccc1)c1ccc(-c2ccncc2)cc1` (stereo not shown) [Compound 5-116, N-hydroxy-2-(phenylthio)-2-(4-(pyridin-4-yl)phenyl)acetamide] gave a pIC50 greater than 6.00.

Take `CC(=O)ONC(=O)C(c1ccccc1)c1ccc(N2CCOCC2)cc1` (stereo not shown) [Compound 5-117, N-acetoxy-2-(4-morpholinophenyl)-2-phenylacetamide]: the pIC50 was 4.82 to 6.00.

`O=C(NO)C(c1ccc(N2CCOCC2)cc1)c1cccc(F)c1` (stereo not shown) [Compound 5-118, 2-(3-fluorophenyl)-N-hydroxy-2-(4-morpholinophenyl)acetamide] had a pIC50 greater than 6.00.

In turn, `O=C(NO)C1(c2ccc(F)cc2)CCCCC1` [Compound 5-119, 1-(4-fluorophenyl)-N-hydroxycyclohexanecarboxamide] showed a pIC50 of 4.82 to 6.00.

The compound `O=C(NO)C1(c2ccc(F)cc2)CCCC1` [Compound 5-120, 1-(4-fluorophenyl)-N-hydroxycyclopentanecarboxamide] gave a pIC50 of 4.82 to 6.00.

Take `CC(C)C(=O)ONC(=O)C(c1ccccc1)c1ccc(N2CCOCC2)cc1` (stereo not shown) [Compound 5-121, N-(isobutyryloxy)-2-(4-morpholinophenyl)-2-phenylacetamide]: the pIC50 was 4.82 to 6.00.

`O=C(NO)C(c1ccc(N2CCOCC2)cc1)c1cccc2ccccc12` (stereo not shown) [Compound 5-122, N-hydroxy-2-(4-morpholinophenyl)-2-(naphthalen-1-yl)acetamide] gave a pIC50 greater than 6.00.

Take `O=C(NO)C(c1ccccc1)c1ccc(OC2CCN(Cc3ccccc3)CC2)cc1` (stereo not shown) [Compound 5-123, 2-(4-(1-benzylpiperidin-4-yloxy)phenyl)-N-hydroxy-2-phenylacetamide]: the pIC50 is greater than 6.00.
